Experimental data reported in PMC6297231 (Nature Communications, 2018).
Where two headings read alike, the source gives them in different places.

Key:
[1] = test system: MDAMB231; test: Cell viability assay; assay type: cell-based; details: Homo sapiens, MDA-MB-231, 24 h; MDAMB231 (Breast); read-out: AZD5991 24h GI50
Protocol: (§4) Cells were plated at 3000 cells/well in 384-well white plates in corresponding cell growth media. […] Caspase-3/7 activation was subsequently determined using a Caspase-Glo 3/7 Reagent (Promega) and viability was assayed using the CellTiter-Glo Reagent (Promega) as described in manufacturer’s instructions. Dose–response curves for caspase-3/7 activation and viability were plotted and analyzed (including EC50 and GI50 determination) using GraphPad Prism.

[2] = target: T1, Bcl-2 (Homo sapiens, UniProt P10415); test: TR-FRET binding assay
T1 construct: C-Terminal 6His-tagged Bcl-2 protein from Bcl-2 (M1-F212); made in house; host or cells: E. coli
Source text: (§1) N-terminal GST-tagged-Mcl-1 protein from Mcl-1 (E171-G327), N-terminal GST-tagged Bcl-xL protein from Bcl-xL (1-209), N-Terminal 6His-tagged Bfl-1 protein from Bfl-1 (M1-K151), N-Terminal 6His-tagged Bcl-w protein from Bcl-w (M1-R171), and C-Terminal 6His-tagged Bcl-2 protein from Bcl-2 (M1-F212) were expressed as a tagged fusion protein in E. coli and subsequently purified via Glutathione Sepharose-affinity or Ni-NTA resin purification, and size-exclusion chromatography.
(§2) For TR-FRET, tagged fusion proteins were incubated with a Europium-labeled antibody and a HyLite Fluor 647-labeled peptide, or a biotin-labeled peptide with a streptavidin-labeled ulight fluorophore allowing the assembly of donor and acceptor dye pairs for use in protein-binding assays.
(§3) The reaction final concentrations for Mcl-1 were 1.5 nM GST-Mcl-1, 0.5 nM LanthaScreen Eu tagged GST antibody (LifeTechnologies cat#PV5594), and 4 nM HyLite Fluor 647-labeled Bim peptide C (Hilyte647 C2 Maleimide)-[…]; for Bcl-xl were 2 nM GST-Bcl-xl, 2 nM LanthaScreen Eu-tagged GST antibody, and 10 nM HyLite Fluor 647-labeled BAK peptide C(Hilyte647 C2 Maleimide)-[…]; for Bfl-1 were 4 nM His-Bfl-1, 0.5 nM LanthaScreen Eu-tagged HIS antibody (PerkinElmer cat#AD0205), and 10 nM HyLite Fluor 647-labeled BIM peptide C(Hilyte647-C2-Maleimide)-[…]; for Bcl-2 and Bcl-w: 2 nM His-Bcl-2, or 2 nM His-Bcl-w, with 0.5 nM LanthaScreen Eu-tagged HIS antibody, 10 nM biotin-labeled Bim peptide (Biotin-lc-[…]), and 2.4 nM a streptavidin labeled ULight Fluorophore (PerkinElmer cat#TRF0102-D). Reactions were incubated at 24 °C for 120–180 min before reading on a Tecan (InfiniteM1000 spectrofluorometer) with excitation at 340 nm and emission at […] and 665 nm. Ratio of fluorescent emission intensity at 665–620 nm was calculated for each reaction (equation 1). Percent inhibition was calculated based upon min (control compound) vs. max (DMSO) according to Eq. (2) and the IC50 was derived the smart fit curve (Genedata screener) of % inhibition vs. concentration. Ki values were calculated from Eq. […]

[3] = target: Bcl-xL (Homo sapiens, UniProt Q07817); test: TR-FRET binding assay
Source text: as §1, §2, §3

[4] = target: T2, Bfl-1 (Homo sapiens, UniProt Q16548); test: TR-FRET binding assay
T2 construct: N-Terminal 6His-tagged Bfl-1 protein from Bfl-1 (M1-K151); made in house; host or cells: E. coli
Source text: as §1, §2, §3

[5] = target: T3, Bcl-w (Homo sapiens, UniProt Q92843); test: TR-FRET binding assay
T3 construct: N-Terminal 6His-tagged Bcl-w protein from Bcl-w (M1-R171); made in house; host or cells: E. coli
T3 sequence (Q92843 1-171): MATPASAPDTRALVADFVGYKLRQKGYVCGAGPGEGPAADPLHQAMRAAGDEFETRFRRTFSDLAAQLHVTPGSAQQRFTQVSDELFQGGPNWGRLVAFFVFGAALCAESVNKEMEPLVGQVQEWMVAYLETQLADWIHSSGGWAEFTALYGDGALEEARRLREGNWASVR
Source text: as §1, §2, §3

[6] = test system: OCIAML5; test: Caspase-3/7 activation assay; assay type: cell-based; details: Homo sapiens, OCI-AML-5, 6 h
Protocol: as §4

[7] = test system: murine Eµ-Myc lymphoma tumors; test: GFP-labeled Eµ-Myc lymphoma model; assay type: in vivo, mice; details: 100 mg kg^−1 on day 3 and day 10 post-transplantation
Source text: Eµ-Myc: These studies complied with all ethical regulations in accordance with the guidelines established by the Institutional Animal Experimentation Ethics Committee, Peter MacCallum Cancer Center. Non-irradiated C57BL/6 mice between 6 and 8 weeks old were transplanted by tail vein injection with 100,000 GFP-labeled Eμ-Myc lymphoma cells[39] harvested from lymph nodes of a syngeneic mouse. Treatment started 3 days after implantation. AZD5991 and vehicle were formulated and administered as mentioned above. Peripheral blood was collected by retro-orbital sampling 11 days post-transplantation and GFP-expressing leukemic cells assessed by flow cytometry using a BD FACSCanto II cytometer and data analyzed using Flowlogic software. Gating strategy is shown in Supplementary Figure 8.

[8] = test system: DMS114; test: Cell viability assay; assay type: cell-based; details: Homo sapiens, DMS-114, 24 h; DMS114 (Lung); read-out: AZD5991 24h GI50
Protocol: as §4

[9] = test system: AMO1; test: Cell viability assay; assay type: cell-based; details: Homo sapiens, 24 h; AMO1 (MM); read-out: AZD5991 24h GI50
Protocol: as §4

[10] = test system: OPM2; test: Cell viability assay; assay type: cell-based; details: Homo sapiens, OPM-2, 24 h; OPM2 (MM); read-out: AZD5991 24h GI50
Protocol: as §4

[11] = test system: HL60; test: Cell viability assay; assay type: cell-based; details: Homo sapiens, HL-60, 24 h; HL60 (AML); read-out: AZD5991 24h GI50
Protocol: as §4

[12] = test system: ME1; test: Caspase-3/7 activation assay; assay type: cell-based; details: ME-1, 6 h
Protocol: as §4

[13] = test system: EJM; test: Cell viability assay; assay type: cell-based; details: Homo sapiens, 24 h; EJM (MM); read-out: AZD5991 24h GI50
Protocol: as §4

[14] = test system: Sudhl2; test: Cell viability assay; assay type: cell-based; details: Homo sapiens, SU-DHL-2, 24 h; Sudhl2 (NHL); read-out: AZD5991 24h GI50
Protocol: as §4

[15] = test system: CMK; test: Cell viability assay; assay type: cell-based; details: Homo sapiens, 24 h; CMK (AML); read-out: AZD5991 24h GI50
Protocol: as §4

[16] = test system: ARH77; test: Cell viability assay; assay type: cell-based; details: Homo sapiens, ARH-77, 24 h; ARH77 (MM); read-out: AZD5991 24h GI50
Protocol: as §4

T2 sequence (Q16548 1-151): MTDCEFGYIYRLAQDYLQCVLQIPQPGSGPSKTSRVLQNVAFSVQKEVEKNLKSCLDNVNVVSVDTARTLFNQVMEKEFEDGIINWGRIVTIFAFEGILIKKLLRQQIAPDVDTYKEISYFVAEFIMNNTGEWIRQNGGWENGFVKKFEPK
T1 sequence (P10415 1-212): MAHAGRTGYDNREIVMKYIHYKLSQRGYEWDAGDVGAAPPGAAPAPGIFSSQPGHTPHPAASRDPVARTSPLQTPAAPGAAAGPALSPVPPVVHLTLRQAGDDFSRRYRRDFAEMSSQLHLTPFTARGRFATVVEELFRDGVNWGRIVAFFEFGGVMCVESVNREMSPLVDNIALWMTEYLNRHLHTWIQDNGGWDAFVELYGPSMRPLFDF
Bcl-xL, sequence (Q07817 1-209): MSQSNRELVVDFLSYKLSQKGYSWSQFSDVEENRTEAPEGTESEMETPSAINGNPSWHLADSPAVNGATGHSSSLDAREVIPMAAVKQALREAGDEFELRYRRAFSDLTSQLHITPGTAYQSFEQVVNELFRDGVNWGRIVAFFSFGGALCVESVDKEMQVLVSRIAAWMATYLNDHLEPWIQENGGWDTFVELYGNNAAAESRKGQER

Question: `Cc1c2c(nn1C)CSCc1cc(n(C)n1)CSc1cc(c3ccccc3c1)OCCCc1c(C(=O)O)n(C)c3c-2c(Cl)ccc13` (atropisomer, axis not shown; (Ra)) [(Ra)-7] was tested. Which GI50 [1] did it give?
Answer: > 30 µM

Question: What about the IC50 ([2]; FRET) of the same compound?
Answer: 20 µM

Question: And the Ki ([2]; calculated from FRET IC50)?
Answer: 6.8 µM

Question: And the IC50 ([3]; FRET)?
Answer: 36 µM

Question: And the Ki ([3]; calculated from FRET IC50)?
Answer: 18 µM

Question: What about the IC50 ([4]; FRET) of the same compound?
Answer: 24 µM

Question: What about the Ki ([4]; calculated from FRET IC50) of the same compound?
Answer: 12 µM

Question: What about the IC50 ([5]; FRET) of the same compound?
Answer: 49 µM

Question: And the Ki ([5]; calculated from FRET IC50)?
Answer: 25 µM

Question: What about the EC50 ([6]; read-out: 6h caspase EC50, OCIAML5, single agent) of the same compound?
Answer: > 0.333 µM

Question: What about the EC50 ([6]; read-out: AZD5991 6h EC50, OCIAML5 (AML), caspase 3/7 activation) of the same compound?
Answer: > 30 µM

Question: And the “survival vs. vehicle control group” value [7]?
Answer: prolonged survival

Question: What about the “leukemic cells in peripheral blood” value ([7]; day 11) of the same compound?
Answer: depletion of leukemic cells from peripheral blood

Question: And the GI50 [8]?
Answer: 219 nM

Question: And the GI50 [9]?
Answer: 129 nM

Question: And the GI50 [10]?
Answer: 57 nM

Question: And the GI50 [11]?
Answer: 543 nM

Question: And the EC50 ([12]; read-out: 6h caspase EC50, ME1, single agent)?
Answer: > 333 nM

Question: And the EC50 ([12]; read-out: AZD5991 6h EC50, ME1 (AML), caspase 3/7 activation)?
Answer: 326 nM

Question: And the GI50 [13]?
Answer: 105 nM

Question: And the GI50 [14]?
Answer: 585 nM

Question: And the GI50 [15]?
Answer: > 30 µM

Question: What about the GI50 [16] of the same compound?
Answer: 18.2 µM
